Experimental findings from patent publication US9457015B2, “2-aminothiazole derivative and anti-cancer composition comprising same as active ingredient” (Chung-Ang University Industry-Academic Cooperation …, priority 2012, dated 2016) are described below.

The structures appear in SMILES notation.

The test system of assay [1] is colorectal cancer cells (HCT15). As to the kind of experiment: Cytotoxicity by MTT analysis, HCT15. Type of assay: cell-based. The protocol: (§1) Toxicity to cells was analyzed using 3-[4,5-dimethylthiazol-2-yl]-2,5-diphenyl-tetra zolium bromide (MTT) analysis. As cancer cells to be measured, 8.0×10^3 cells/mL was aliquoted on a 96-well culture dish and then the cells were cultured for 24 hours. The next day, the synthesized compound was dissolved in a medium according to each concentration, and diluted in a medium according to each concentration. The medium in which the compound was dissolved according to each concentration was added to a culture dish at […], dimethyl sulfoxide (DMSO) was added to a control well so as to have the same volume as the added compound. After the addition, the cells were cultured in an incubator in 5% CO2 at 37° C., and then survival capability of cells was measured at 24 hours and 48 hours after the culture. After the medium was removed, the cells were washed twice using PBS, then 200 μL of a solution containing 1 mg/mL of MTT (Sigma-Aldrich Chemical Co., USA) was added thereto, and then the cells were further cultured for 3 hours in a CO2 incubator at 37° C. The 96-well culture dish was centrifuged for 10 minutes at 2000 rpm to remove the MTT solution. […] The solution was added to the 96-well culture dish, and then absorbance was measured at 540 nm. Relative absorbance was calculated using absorbance according to concentration of drugs divided by absorbance of a control group (drug-untreated group).

In assay [2] the test system is prostate cancer cell line, PC3, transplanted. Put plainly: Anti-cancer effect in vivo in mice with transplanted PC3 tumors. The conditions noted are these: 2 mg/kg/day i.v. for four consecutive days, compared 7 days after stoppage. The protocol:
The anti-cancer activity of the compound according to the present invention, HF-154 was measured in in-vivo using mice in which a prostate cancer cell line, PC3, was transplanted. An experimental group included a group of two mice to which an excipient (vehicle) was administered and a group of four mice to which the compound according to the present invention, HF-154, was administered. The compound according to the present invention, HF-154, was administered to each mouse in an amount of 2 mg/kg/day (100 μL i.v.). First, after administration for four consecutive days, administration was stopped, and tumor growth was compared at 7 days after the stoppage.

Assay [3] deals with skin cancer cells (SK-MEL2). Put plainly: Cytotoxicity by MTT analysis, SK-MEL2. Type of assay: cell-based. The protocol: as §1
Assay [4] has as its system breast cancer cells (MCF7). As to the kind of experiment: Cytotoxicity by MTT analysis, MCF7. Type of assay: cell-based. To be noted: Homo sapiens. The protocol:
as §1

In assay [5] the test system is lung cancer cells (A549). As to the kind of experiment: Cytotoxicity by MTT analysis, A549. Type of assay: cell-based. As to the method:
as §1

The test system of assay [6] is ovarian cancer cells (SK-OV-3). Put plainly: Cytotoxicity by MTT analysis, SK-OV-3. Type of assay: cell-based. To be noted: Homo sapiens, SK-OV-3, MTT analysis, read-out: IC50 (nM) SK-OV3 Ovarian cancer. As to the method:
as §1

For assay [7], the system named is prostate cancer cell line, PC3. As to the kind of experiment: Cytotoxicity by MTT analysis, PC3. Type of assay: cell-based. To be noted: PC3 prostate cancer cells. As to the method: The prostate cancer cell line, PC3 was obtained from Korean Cell Line Bank. After adding Rosewell Park Memorial Institute (RPMI) 1640 cell culture medium (LM001-01, WelGEN) containing 10% fetal bovine serum (FBS), 100 units/mL of penicillin and 100 μg/mL of streptomycin to a 100 Φ dish, cells were inoculated on the dish and cultured in a CO2 incubator (VS-9000C, vision) in 5% CO2/95% humidified air atmosphere at 37° C.
Toxicity to cells was analyzed using 3-[4,5-dimethylthiazol-2-yl]-2,5-diphenyl-tetra zolium bromide (MTT) analysis. As cancer cells to be measured, 8.0×10^3 cells/mL was aliquoted on a 96-well culture dish and then the cells were cultured for 24 hours. The next day, the synthesized compound was dissolved in a medium according to each concentration, and diluted in a medium according to each concentration. […] After the addition, the cells were cultured in an incubator in 5% CO2 at 37° C., and then survival capability of cells was measured at 24 hours and 48 hours after the culture. […] The solution was added to the 96-well culture dish, and then absorbance was measured at 540 nm. Relative absorbance was calculated using absorbance according to concentration of drugs divided by absorbance of a control group (drug-untreated group).

As usually defined, the IC50 is the concentration at which inhibition is half-maximal. Turning to `O=C(CCc1ccco1)Nc1ncc(-c2ccc(F)cc2)s1` [HF-154, N-(5-(4-fluorophenyl)thiazol-2-yl)-3-(furan-2-yl)propanamide], the IC50 in assay [1] (Homo sapiens, HCT-15, MTT analysis) was 1 to 5 nM; in assay [1] (MTT analysis), roughly 1 nM; in assay [3], roughly 5 nM; in assay [4] it was roughly 0.3 nM; in assay [5], roughly 3 nM; in assay [6], roughly 0.5 nM. This molecule came in with an IC50 in assay [7] of roughly 0.1 nM. For the same molecule, the “size of the tumor compared to the excipient administration group” value in assay [2] is “significantly reduced”.
